Assay results taken from US11497212B2, “Substituted thiophenyl uracils, salts thereof and the use thereof as herbicidal agents” (Syngenta Crop Protection AG, priority 2017, dated 2022).

Columns and labels:
Type in all cases: in vivo
Pharbitis purpurea [1] = experiment: Herbicidal action pre-emergence (greenhouse pot trial); details: application rate 320 g/ha
Summary of the method: (§1)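 Efficacy scored visually as percent of untreated control (0% = like control, 100% = dead) roughly 3 weeks after treatment. Compounds, as WP or EC plus 0.5% additive in 600 L/ha water, were applied at up to 320 g/ha to soil surface covering freshly sown seeds.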

Hordeum murinum = experiment: as above; details: application rate 320 g/ha
Summary of the method: as §1

Veronica persica [2] = experiment: as above; details: application rate 320 g/ha
Summary of the method: as §1

Avena fatua = experiment: as above; details: application rate 320 g/ha
Summary of the method: as §1

Stellaria media [3] = experiment: as above; details: application rate 320 g/ha, scored after about 3 weeks
Summary of the method: as §1

Amaranthus retroflexus [4] = experiment: as above; details: scored after about 3 weeks
Summary of the method: as §1

Cyperus esculentus = experiment: as above; details: application rate 320 g/ha
Summary of the method: as §1

Setaria viridis [5] = experiment: as above; details: application rate 320 g/ha, scored after about 3 weeks
Summary of the method: as §1

Matricaria inodora [6] = experiment: as above; details: scored after about 3 weeks
Summary of the method: as §1

Echinochloa crus-galli [7] = experiment: as above; details: application rate 320 g/ha, scored after about 3 weeks
Summary of the method: as §1

Abutilon theophrasti [8] = experiment: as above; details: scored after about 3 weeks
Summary of the method: as §1

Viola tricolor [9] = experiment: as above; details: application rate 320 g/ha, scored after about 3 weeks
Summary of the method: as §1

Alopecurus myosuroides [10] = experiment: as above; details: application rate 320 g/ha, scored after about 3 weeks
Summary of the method: as §1

Lolium rigidum [11] = experiment: as above
Summary of the method: as §1

Triticum aestivum = experiment: Crop compatibility post-emergence (greenhouse pot trial); details: application rate 20 g/ha
Summary of the method: (§2)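 Greenhouse pot trial: sandy loam, sown seeds, treatment at one-leaf stage 2–3 wk after sowing. Spray: aqueous WP/EC preparation, 0.5% additive, 600 L/ha. Readout: visual % effect after ~3 wk relative to untreated plants.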

Zea mays [12] = experiment: as above
Summary of the method: as §2

Oryza sativa [13] = experiment: as above
Summary of the method: as §2

Polygonum convolvulus = experiment: Herbicidal action post-emergence (greenhouse pot trial); details: scored visually after about 3 weeks vs untreated controls
Summary of the method: (§3)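 Visual efficacy score after ~3 wk in greenhouse vs untreated control; 100% = plants dead, 0% = like control. Spray: aqueous suspension/emulsion of WP or EC, 0.5% additive, 600 L/ha water, ≤80 g/ha. Plants in sandy loam pots, treated at one-leaf stage, 2–3 wk post-sowing.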

Pharbitis purpurea [14] = experiment: as above
Summary of the method: as §3

Veronica persica [15] = experiment: as above
Summary of the method: as §3

Stellaria media [16] = experiment: as above; details: scored visually after about 3 weeks vs untreated controls
Summary of the method: as §3

Amaranthus retroflexus [17] = experiment: as above; details: scored visually after about 3 weeks vs untreated controls
Summary of the method: as §3

Setaria viridis [18] = experiment: as above; details: scored visually after about 3 weeks vs untreated controls
Summary of the method: as §3

Matricaria inodora [19] = experiment: as above; details: scored visually after about 3 weeks vs untreated controls
Summary of the method: as §3

Abutilon theophrasti [20] = experiment: as above; details: scored visually after about 3 weeks vs untreated controls
Summary of the method: as §3

Viola tricolor [21] = experiment: as above
Summary of the method: as §3

Alopecurus myosuroides [22] = experiment: as above; details: application rate 80 g/ha, scored visually after about 3 weeks vs untreated controls
Summary of the method: as §3

Glycine max [23] = experiment: Crop compatibility pre-emergence (greenhouse pot trial); details: effect vs untreated controls
Summary of the method: (§4)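 Seeds sown in pots and covered with soil; compounds formulated as WP or EC applied pre-emergence to the soil surface as aqueous suspension/emulsion with 0.5% additive at 600 L/ha water. Plants kept in greenhouse; crop damage scored visually after about 3 weeks as % versus untreated controls (0% = like control, 100% = dead).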

Zea mays [24] = experiment: as above; details: effect vs untreated controls
Summary of the method: as §4

Oryza sativa [25] = experiment: as above; details: effect vs untreated controls
Summary of the method: as §4

Echinochloa crus-galli [26] = experiment: Herbicidal action post-emergence (greenhouse pot trial); details: application rate 20 g/ha, scored visually after about 3 weeks vs untreated controls
Summary of the method: as §3

Glycine max [27] = experiment: Crop compatibility post-emergence (greenhouse pot trial); details: application rate 20 g/ha
Summary of the method: as §2

Lolium rigidum [28] = experiment: Herbicidal action post-emergence (greenhouse pot trial); details: application rate 20 g/ha, scored visually after about 3 weeks vs untreated controls
Summary of the method: as §3

Structure (SMILES)	Pharbitis purpurea (Efficacy in %) (Pharbitis purpurea [1])	Hordeum murinum (Efficacy in %) (Hordeum murinum)	Veronica persica (Efficacy in %) (Veronica persica [2])	Avena fatua (Efficacy in %) (Avena fatua)	Stellaria media (Efficacy in %) (Stellaria media [3])	Amaranthus retroflexus (Efficacy in %) (Amaranthus retroflexus [4]; application rate 320 g/ha)	Setaria viridis (Efficacy in %) (Setaria viridis [5])	Matricaria inodora (Efficacy in %) (Matricaria inodora [6]; application rate 320 g/ha)	Echinochloa crus-galli (Efficacy in %) (Echinochloa crus-galli [7])	Abutilon theophrasti (Efficacy in %) (Abutilon theophrasti [8]; application rate 320 g/ha)	Viola tricolor (Efficacy in %) (Viola tricolor [9])	Alopecurus myosuroides (Efficacy in %) (Alopecurus myosuroides [10])	Triticum aestivum (Efficacy in %) (Triticum aestivum)	Zea mays (Efficacy in %) (Zea mays [12]; application rate 80 g/ha)	Oryza sativa (Efficacy in %) (Oryza sativa [13]; application rate 20 g/ha)	Alopecurus myosuroides (Efficacy in %) (Alopecurus myosuroides [22])	Zea mays (Efficacy in %) (Zea mays [24]; application rate 20 g/ha)	Oryza sativa (Efficacy in %) (Oryza sativa [25]; application rate 20 g/ha)	Polygonum convolvulus (Efficacy in %) (Polygonum convolvulus; application rate 20 g/ha)	Veronica persica (Efficacy in %) (Veronica persica [15]; application rate 20 g/ha)	also measured
CC(Sc1cc(-n2c(=O)cc(C(F)(F)F)n(C)c2=O)c(F)cc1Cl)C(=O)NCC1(C)CCCO1 (stereo not drawn) [I.1-224]	100%	100%	100%	100%	100%	100%	100%	100%	100%	100%	100%	100%	20%	20%	10%	80%	0%	0%			Cyperus esculentus (Efficacy in %) (Cyperus esculentus): 90%; Lolium rigidum (Efficacy in %) (Lolium rigidum [11]; application rate 320 g/ha): 100%; Polygonum convolvulus (Efficacy in %) (Polygonum convolvulus; application rate 80 g/ha): 100%; Pharbitis purpurea (Efficacy in %) (Pharbitis purpurea [14]; application rate 80 g/ha): 100%; Veronica persica (Efficacy in %) (Veronica persica [15]; application rate 80 g/ha): 100%; Stellaria media (Efficacy in %) (Stellaria media [16]; application rate 80 g/ha): 80%; Amaranthus retroflexus (Efficacy in %) (Amaranthus retroflexus [17]; application rate 80 g/ha): 100%; Setaria viridis (Efficacy in %) (Setaria viridis [18]; application rate 80 g/ha): 100%; Matricaria inodora (Efficacy in %) (Matricaria inodora [19]; application rate 80 g/ha): 100%; Abutilon theophrasti (Efficacy in %) (Abutilon theophrasti [20]; application rate 80 g/ha): 100%; Viola tricolor (Efficacy in %) (Viola tricolor [21]; application rate 80 g/ha): 100%; Glycine max (Efficacy in %) (Glycine max [23]; application rate 20 g/ha): 0%
CC(Sc1cc(-n2c(=O)cc(C(F)(F)F)n(C)c2=O)c(F)cc1Cl)C(=O)OCC1CCCOC1 (stereo not drawn) [I.1-92]													10%		0%				100%	100%	Amaranthus retroflexus (Efficacy in %) (Amaranthus retroflexus [4]; application rate 80 g/ha): 100%; Matricaria inodora (Efficacy in %) (Matricaria inodora [6]; application rate 80 g/ha): 100%; Abutilon theophrasti (Efficacy in %) (Abutilon theophrasti [8]; application rate 80 g/ha): 100%; Zea mays (Efficacy in %) (Zea mays [12]; application rate 20 g/ha): 20%; Pharbitis purpurea (Efficacy in %) (Pharbitis purpurea [14]; application rate 20 g/ha): 100%; Amaranthus retroflexus (Efficacy in %) (Amaranthus retroflexus [17]; application rate 20 g/ha): 100%; Setaria viridis (Efficacy in %) (Setaria viridis [18]; application rate 20 g/ha): 100%; Matricaria inodora (Efficacy in %) (Matricaria inodora [19]; application rate 20 g/ha): 80%; Echinochloa crus-galli (Efficacy in %) (Echinochloa crus-galli [26]): 100%; Abutilon theophrasti (Efficacy in %) (Abutilon theophrasti [20]; application rate 20 g/ha): 100%; Viola tricolor (Efficacy in %) (Viola tricolor [21]; application rate 20 g/ha): 100%; Zea mays (Efficacy in %) (Zea mays [24]; application rate 80 g/ha): 0%; Oryza sativa (Efficacy in %) (Oryza sativa [25]; application rate 80 g/ha): 10%
CSCCNC(=O)C(C)Sc1cc(-n2c(=O)cc(C(F)(F)F)n(C)c2=O)c(F)cc1Cl (stereo not drawn) [I.1-181]	100%	90%	100%	100%	100%	100%	100%	100%	100%	100%	100%	100%	20%	20%		80%	0%	0%	100%	100%	Lolium rigidum (Efficacy in %) (Lolium rigidum [11]; application rate 80 g/ha): 100%; Glycine max (Efficacy in %) (Glycine max [27]): 20%; Oryza sativa (Efficacy in %) (Oryza sativa [13]; application rate 80 g/ha): 10%; Stellaria media (Efficacy in %) (Stellaria media [16]; application rate 20 g/ha): 100%; Amaranthus retroflexus (Efficacy in %) (Amaranthus retroflexus [17]; application rate 20 g/ha): 100%; Setaria viridis (Efficacy in %) (Setaria viridis [18]; application rate 20 g/ha): 100%; Matricaria inodora (Efficacy in %) (Matricaria inodora [19]; application rate 20 g/ha): 100%; Echinochloa crus-galli (Efficacy in %) (Echinochloa crus-galli [26]): 100%; Abutilon theophrasti (Efficacy in %) (Abutilon theophrasti [20]; application rate 20 g/ha): 100%; Viola tricolor (Efficacy in %) (Viola tricolor [21]; application rate 20 g/ha): 100%; Lolium rigidum (Efficacy in %) (Lolium rigidum [28]): 80%; Glycine max (Efficacy in %) (Glycine max [23]; application rate 80 g/ha): 20%
